Reference: ChEMBL document CHEMBL1147619, “Syntheses and EGFR kinase inhibitory activity of 6-substituted-4-anilino [1,7] and [1,8] naphthyridine-3-carbonitriles” (Bioorg Med Chem Lett, 2004)
≈ marks a conversion by molar mass, not a printed value.

What was measured:
[1] = molecular target: T1, Epidermal growth factor receptor (Homo sapiens, UniProt P00533); test: Inhibition of epidermal growth factor receptor kinase autophosphorylation
[2] = molecular target: T1, Epidermal growth factor receptor; test: Inhibition of peptide substrate phosphorylation by epidermal growth factor receptor
A-431 = test: Inhibition of A431 human carcinoma cell proliferation; type: functional, cell-based
SW-620 = test: Inhibition of SW620 human carcinoma cell proliferation; type: functional, cell-based
SK-BR-3 = test: Inhibition of SKBr3 human carcinoma cell proliferation; type: functional, cell-based

T1 sequence (P00533 whole entry): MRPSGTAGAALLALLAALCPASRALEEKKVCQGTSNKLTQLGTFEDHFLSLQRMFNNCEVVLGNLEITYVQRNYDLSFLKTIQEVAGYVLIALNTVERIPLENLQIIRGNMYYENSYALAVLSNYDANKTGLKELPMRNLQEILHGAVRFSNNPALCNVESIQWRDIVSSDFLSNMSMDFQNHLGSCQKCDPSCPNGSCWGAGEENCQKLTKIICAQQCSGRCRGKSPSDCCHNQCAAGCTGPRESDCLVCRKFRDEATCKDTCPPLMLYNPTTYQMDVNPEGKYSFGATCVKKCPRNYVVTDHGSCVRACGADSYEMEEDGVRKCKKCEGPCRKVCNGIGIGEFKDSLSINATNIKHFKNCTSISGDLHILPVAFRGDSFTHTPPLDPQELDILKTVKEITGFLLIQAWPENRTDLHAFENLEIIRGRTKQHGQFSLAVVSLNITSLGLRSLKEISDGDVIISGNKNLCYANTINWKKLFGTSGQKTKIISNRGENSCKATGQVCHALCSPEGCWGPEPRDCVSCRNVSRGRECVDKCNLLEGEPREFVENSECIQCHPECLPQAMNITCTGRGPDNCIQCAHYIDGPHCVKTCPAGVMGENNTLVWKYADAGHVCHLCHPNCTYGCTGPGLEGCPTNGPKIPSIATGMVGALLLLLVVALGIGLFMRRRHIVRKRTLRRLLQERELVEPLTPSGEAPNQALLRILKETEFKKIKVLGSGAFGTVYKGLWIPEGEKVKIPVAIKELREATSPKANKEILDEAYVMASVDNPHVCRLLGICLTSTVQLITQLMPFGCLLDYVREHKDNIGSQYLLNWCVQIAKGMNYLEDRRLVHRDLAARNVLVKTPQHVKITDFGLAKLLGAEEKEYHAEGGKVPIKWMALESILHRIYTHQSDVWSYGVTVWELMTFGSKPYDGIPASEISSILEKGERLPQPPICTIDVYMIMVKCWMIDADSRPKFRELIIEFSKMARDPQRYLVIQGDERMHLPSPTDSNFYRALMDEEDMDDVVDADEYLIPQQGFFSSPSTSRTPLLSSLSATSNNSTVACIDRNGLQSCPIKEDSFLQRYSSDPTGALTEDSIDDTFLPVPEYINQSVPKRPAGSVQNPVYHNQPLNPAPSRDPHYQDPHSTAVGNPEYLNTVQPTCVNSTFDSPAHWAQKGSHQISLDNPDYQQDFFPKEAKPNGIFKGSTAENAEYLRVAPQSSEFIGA

IC50 [1] [nM]	IC50 [2] [nM]	IC50 (A-431) [µg/mL]	IC50 (SW-620) [µg/mL]	IC50 (SK-BR-3) [µg/mL]	Compound
> 1000	259	–	–	–	CC#CC(=O)Nc1ccc2ncc(C#N)c(Nc3cccc(Br)c3)c2c1
6790	3760	–	–	–	CC#CC(=O)Nc1cnc2ncc(C#N)c(Nc3ccc(F)c(Cl)c3)c2c1
123	37.2	0.23 (≈ 0.511 µM)	2.8 (≈ 6.22 µM)	0.089 (≈ 0.198 µM)	CN(C)C/C=C/C(=O)Nc1ccc2ncc(C#N)c(Nc3cccc(Br)c3)c2c1
> 10000	6270	–	–	–	CC#CC(=O)Nc1cnc2ncc(C#N)c(Nc3cccc(Br)c3)c2c1
1030	330	–	–	–	CC#CC(=O)Nc1ccc2ncc(C#N)c(Nc3ccc(F)c(Cl)c3)c2c1

The next lines start with the compound.

Compound	IC50 [1] [nM]	IC50 [2] [nM]	IC50 (A-431) [µg/mL]	IC50 (SW-620) [µg/mL]	IC50 (SK-BR-3) [µg/mL]
C=CC(=O)Nc1ccc2ncc(C#N)c(Nc3cccc(Br)c3)c2c1	86.9	9.7	–	–	–
C=CC(=O)Nc1cnc2ncc(C#N)c(Nc3cccc(Br)c3)c2c1	976	375	–	–	–
CN(C)CCOc1cc2c(Nc3cccc(Br)c3)c(C#N)cnc2cn1	> 10000	> 10000	–	–	–
CN(C)C/C=C/C(=O)Nc1cc2c(Nc3cccc(Br)c3)c(C#N)cnc2cn1	8.6	1.9	0.088 (≈ 0.195 µM)	0.356 (≈ 0.789 µM)	0.036 (≈ 0.0798 µM)
CN(C)CCOc1cc2c(Nc3ccc(F)c(Cl)c3)c(C#N)cnc2cn1	> 10000	> 10000	–	–	–
CN(C)C/C=C/C(=O)Nc1cnc2ncc(C#N)c(Nc3cccc(Br)c3)c2c1	4130	2040	2.76 (≈ 6.12 µM)	> 5	4.83 (≈ 10.7 µM)
